Assay results as given in patent publication US20100280061A1, “NOVEL ANALGESIC THAT BINDS FILAMIN A” (priority 2009, published 2010).
pKd: −log10 of the molar value.

Assays:
mouse = assay: Mouse hot-water tail-flick test; assay type: in vivo; settings: orally administered
Description: The mouse “tail flick” test was used to assay the relative antinociceptive activity of compositions containing a compound to be assayed.
This assay was substantially that disclosed by Xie et al., 2005 J. Neurosci 25:409-416.
The mouse hot-water tail-flick test was performed by placing the distal third of the tail in a water bath maintained at 52° C. The latency until tail withdrawal from the bath was determined and compared among the treatments. A 10 second cutoff was used to avoid tissue damage. Data are converted to percentage of antinociception by the following formula: (response latency−baseline latency)/(cutoff−baseline latency)×100 to generate dose-response curves. […] Relative potency was determined as a ratio of the A50 values.

[1] = target: Bn-VAKGL pentapeptide of filamin A (FLNA) (Homo sapiens, UniProt P21333); assay: FITC-NLX-based FLNA screening assay (FLNA peptide binding assay); settings: 10 nM FITC-NLX
Description: The final assay volume is 100 μl.
Compounds are tested in triplicate or quadruplicate.

mu opiate receptor (MOR) = target: T1, mu opiate receptor (MOR) (Rattus norvegicus, UniProt P33535); assay: [35S]GTPγS binding assay using striatal membranes (MOR agonist activity); assay type: biochemical; set-up: MOR agonist activity, [35S]GTPγS binding to Gαo, 0.1 μM / MOR agonist activity, [35S]GTPγS binding to Gαo, 1 μM / MOR agonist activity, [35S]GTPγS binding to Gαo, 1 μM + BFNA: reference not given here; settings: for MOR agonist activity, [35S]GTPγS binding to Gαo, 0.1 μM: 0.1 μM compound; for MOR agonist activity, [35S]GTPγS binding to Gαo, 0.1 μM / MOR agonist activity, [35S]GTPγS binding to Gαo, 1 μM: striatal membranes; for MOR agonist activity, [35S]GTPγS binding to Gαo, 1 μM + BFNA: 1 μM compound + 1 μM β-funaltrexamine; for MOR agonist activity, [35S]GTPγS binding to Gαo, 1 μM: 1 μM compound
T1 construct: from tissue; host or cells: striatal tissue (membrane preparation)
T1 sequence (P33535 whole entry): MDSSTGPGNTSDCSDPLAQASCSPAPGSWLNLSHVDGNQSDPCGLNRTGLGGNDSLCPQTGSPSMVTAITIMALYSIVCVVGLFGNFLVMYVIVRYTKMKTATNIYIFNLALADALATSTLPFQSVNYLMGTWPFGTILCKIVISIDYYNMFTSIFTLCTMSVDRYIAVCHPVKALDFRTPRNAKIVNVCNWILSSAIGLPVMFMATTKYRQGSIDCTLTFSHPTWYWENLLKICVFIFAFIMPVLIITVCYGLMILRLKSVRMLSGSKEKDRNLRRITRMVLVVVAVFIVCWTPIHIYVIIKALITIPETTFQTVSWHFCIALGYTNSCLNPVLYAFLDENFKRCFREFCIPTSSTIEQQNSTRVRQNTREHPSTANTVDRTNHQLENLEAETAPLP
Description: To assess the mu opiate receptor (MOR) agonist activity of positive compounds from the FLNA screening, compounds were tested in a [^35S]GTPγS binding assay using striatal membranes. Our previous study has shown that in striatal membranes, activation of MOR leads to an increase in [^35S]GTPγS binding to Gαo (Wang et al., 2005 Neuroscience 135:247-261).
Striatal tissue was homogenized in 10 volumes of ice cold 25 mM HEPES buffer, pH 7.4, which contained 1 mM EGTA, 100 mM sucrose, 50 μg/ml leupeptin, 0.04 mM PMSF, 2 μg/ml soybean trypsin inhibitor and 0.2% 2-mercaptoethanol. The homogenates were centrifuged at 800×g for 5 minutes and the supernatants were centrifuged at 49,000×g for 20 minutes. The resulting pellets were suspended in 10 volume of reaction buffer, which contained 25 mM HEPES, pH 7.5, 100 mM NaCl, 50 μg/ml leupeptin, 2 μg/ml soybean trypsin inhibitor, 0.04 mM PMSF and 0.02% […].
The resultant striatal membrane preparation (200 μg) was admixed and maintained (incubated) at 30° C. for 5 minutes in reaction buffer as above that additionally contained 1 mM MgCl2 and 0.5 nM [^35S]GTPγS (0.1 μCi/assay, PerkinElmer Life and Analytical Sciences) in a total volume of 250 μl and continued for 5 minutes in the absence or presence of 0.1-10 μM of an assayed compound of interest. The reaction was terminated by dilution with 750 μl of ice-cold reaction buffer that contained 20 mM MgCl2 and 1 mM EGTA and immediate centrifugation at 16,000×g for 5 minutes.
The resulting pellet was solubilized by sonicating for 10 seconds in 0.5 ml of immunoprecipitation buffer containing 0.5% digitonin, 0.2% sodium cholate and 0.5% NP-40. Normal rabbit serum (1 μl) was added to 1 ml of lysate and incubated at 25° C. for 30 minutes. Nonspecific immune complexes were removed by incubation with 25 μl of protein A/G-conjugated agarose beads at 25° C. for 30 minutes followed by centrifugation at 5,000×g at 4° C. for 5 minutes. The supernatant was divided and separately incubated at 25° C. for 30 minutes with antibodies raised against Gαo proteins (1:1,000 dilutions).
The immunocomplexes so formed were collected by incubation at 25° C. for 30 minutes with 40 μl of agarose-conjugated protein A/G beads and centrifugation at 5,000×g at 4° C. for 5 minutes. The pellet was washed and suspended in buffer containing 50 mM Tris-HCl, pH 8.0, and 1% NP-40. The radioactivity in the suspension was determined by liquid scintillation spectrometry. […] DAMGO (H-Tyr-D-Ala-Gly-N-MePhe-Gly-OH; 1 or 10 μM) was used as a positive control.

[2] = tested on: MOR-Gs/olf and MOR-Go coupling; assay: Relative Gs/Go switching in organotypic striatal slice cultures (MOR-G protein coupling); assay type: cell-based, rat; settings: for Go (MOR in anti-Gαo immunoprecipitates), average / Gs/Go-Coupled Ratio, average / Gs/olf (MOR in anti-Gαs/olf immunoprecipitates), average: striatal slice culture
Description: The experiments described herein were carried out on organotypic striatal slices from male Sprague Dawley rats (200 to 250 g) purchased from Taconic (Germantown, N.Y.). Rats were housed two per cage and maintained on a regular 12-hour light/dark cycle in a climate-controlled room with food and water available ad libitum and sacrificed by rapid decapitation. All data are presented as mean±standard error of the mean. Treatment effects were evaluated by two-way ANOVA followed by Newman-Keul's test for multiple comparisons. Two-tailed Student's t test was used for post hoc pairwise comparisons. The threshold for significance was p<0.05.
Striatal slices ([…]) were prepared using a Mcllwain tissue chopper (Mickle Laboratory Engineering Co., Surrey, UK). Slices were carefully transferred to sterile, porous culture inserts (0.4 μm, Millicell-CM) using the rear end of a glass Pasteur pipette. Each culture insert unit contained 2 slices and was placed into one well of the 12-well culture tray. […] The pH value was adjusted to 7.2 with HEPES buffer.
Cultures were first incubated for 2 days to minimize the impact of injury from slice preparation. Incubator settings throughout the experiment were 36° C. with 5% CO2.
Slices were returned to culture medium with normal serum after each drug exposure. Tissues were harvested 16 hours after the last drug exposure by centrifugation.
For determination of MOR-G protein coupling, slices were homogenized to generate synaptic membranes. […] Following centrifugation, striatal membrane lysates were immunoprecipitated with immobilized anti-Gαs/olf or -Gαo conjugated with immobilized protein G-agarose beads. The level of MOR in anti-Gαs/olf or -Gαo immunoprecipitates was determined by Western blotting using specific anti-MOR antibodies.

filamin A = filamin A (Homo sapiens, UniProt P21333); settings: read-out: affinity of binding to filamin A; cited from earlier work
Chain of filamin A (P21333 whole entry): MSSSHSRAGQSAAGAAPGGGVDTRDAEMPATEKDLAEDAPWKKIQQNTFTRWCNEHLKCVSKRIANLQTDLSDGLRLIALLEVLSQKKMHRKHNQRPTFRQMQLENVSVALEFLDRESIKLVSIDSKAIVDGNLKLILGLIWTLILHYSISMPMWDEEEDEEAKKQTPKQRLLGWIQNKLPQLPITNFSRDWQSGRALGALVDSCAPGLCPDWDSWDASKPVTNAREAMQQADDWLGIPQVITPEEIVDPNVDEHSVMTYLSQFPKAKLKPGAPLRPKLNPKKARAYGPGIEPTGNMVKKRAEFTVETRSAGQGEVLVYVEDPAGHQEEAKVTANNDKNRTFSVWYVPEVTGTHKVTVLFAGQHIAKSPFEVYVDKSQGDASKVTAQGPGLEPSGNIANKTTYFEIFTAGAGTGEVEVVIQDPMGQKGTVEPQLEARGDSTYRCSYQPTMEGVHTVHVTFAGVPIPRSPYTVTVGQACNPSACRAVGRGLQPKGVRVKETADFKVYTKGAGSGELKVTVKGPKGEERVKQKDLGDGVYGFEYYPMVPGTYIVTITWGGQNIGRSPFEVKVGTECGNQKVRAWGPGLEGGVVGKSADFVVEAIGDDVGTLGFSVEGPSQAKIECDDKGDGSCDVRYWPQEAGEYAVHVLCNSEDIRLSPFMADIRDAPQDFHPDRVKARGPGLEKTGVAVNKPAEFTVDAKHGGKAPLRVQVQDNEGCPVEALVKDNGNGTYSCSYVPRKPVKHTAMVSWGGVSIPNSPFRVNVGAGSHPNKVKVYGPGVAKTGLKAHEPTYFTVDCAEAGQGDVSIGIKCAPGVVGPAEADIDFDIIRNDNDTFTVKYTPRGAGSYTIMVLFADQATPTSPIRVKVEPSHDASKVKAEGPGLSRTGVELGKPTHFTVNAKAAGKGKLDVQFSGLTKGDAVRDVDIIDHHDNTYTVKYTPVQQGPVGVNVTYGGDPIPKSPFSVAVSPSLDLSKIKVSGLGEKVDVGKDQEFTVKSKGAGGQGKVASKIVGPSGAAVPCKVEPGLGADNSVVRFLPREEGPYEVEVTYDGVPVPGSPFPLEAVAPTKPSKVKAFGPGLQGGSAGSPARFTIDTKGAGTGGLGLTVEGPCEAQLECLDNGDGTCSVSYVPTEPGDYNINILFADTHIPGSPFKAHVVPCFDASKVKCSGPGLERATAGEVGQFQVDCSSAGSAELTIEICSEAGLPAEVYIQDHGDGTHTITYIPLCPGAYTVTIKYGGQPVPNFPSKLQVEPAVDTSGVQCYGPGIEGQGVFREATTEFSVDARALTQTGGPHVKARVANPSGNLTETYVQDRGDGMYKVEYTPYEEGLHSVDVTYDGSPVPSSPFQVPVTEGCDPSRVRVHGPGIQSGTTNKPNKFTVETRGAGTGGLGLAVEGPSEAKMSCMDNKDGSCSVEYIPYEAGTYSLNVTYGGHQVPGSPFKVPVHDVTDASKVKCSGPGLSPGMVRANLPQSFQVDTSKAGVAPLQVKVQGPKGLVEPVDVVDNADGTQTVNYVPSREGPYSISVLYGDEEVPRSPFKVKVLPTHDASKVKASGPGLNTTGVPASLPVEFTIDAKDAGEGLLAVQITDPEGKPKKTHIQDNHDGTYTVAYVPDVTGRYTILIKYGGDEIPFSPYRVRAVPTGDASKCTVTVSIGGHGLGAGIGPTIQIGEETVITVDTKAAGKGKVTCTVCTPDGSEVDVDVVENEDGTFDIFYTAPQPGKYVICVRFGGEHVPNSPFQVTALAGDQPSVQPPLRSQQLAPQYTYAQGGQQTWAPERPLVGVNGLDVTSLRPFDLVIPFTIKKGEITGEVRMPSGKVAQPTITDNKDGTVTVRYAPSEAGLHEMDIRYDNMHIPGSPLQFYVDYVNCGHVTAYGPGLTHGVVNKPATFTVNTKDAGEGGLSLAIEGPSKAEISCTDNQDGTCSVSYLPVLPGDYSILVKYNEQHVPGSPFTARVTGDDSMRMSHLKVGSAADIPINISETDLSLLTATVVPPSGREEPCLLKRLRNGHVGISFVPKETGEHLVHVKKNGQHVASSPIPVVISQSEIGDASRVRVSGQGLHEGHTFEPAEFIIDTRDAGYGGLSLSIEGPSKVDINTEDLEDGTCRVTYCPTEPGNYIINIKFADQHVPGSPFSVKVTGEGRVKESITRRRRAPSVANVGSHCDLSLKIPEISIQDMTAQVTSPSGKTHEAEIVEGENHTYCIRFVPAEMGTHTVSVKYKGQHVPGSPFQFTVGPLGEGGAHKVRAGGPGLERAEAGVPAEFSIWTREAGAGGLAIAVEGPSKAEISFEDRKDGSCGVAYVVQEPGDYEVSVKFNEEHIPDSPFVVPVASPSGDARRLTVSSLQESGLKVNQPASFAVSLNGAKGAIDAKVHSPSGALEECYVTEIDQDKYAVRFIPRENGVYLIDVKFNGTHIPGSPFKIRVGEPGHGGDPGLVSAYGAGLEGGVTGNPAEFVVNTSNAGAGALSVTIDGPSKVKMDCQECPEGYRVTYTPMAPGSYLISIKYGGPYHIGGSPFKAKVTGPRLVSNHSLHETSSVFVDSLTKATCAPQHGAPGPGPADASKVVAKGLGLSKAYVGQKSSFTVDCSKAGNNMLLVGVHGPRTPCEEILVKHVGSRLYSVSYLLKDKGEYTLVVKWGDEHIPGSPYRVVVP

[3] = 32 mg/kg, at about 20-30 minutes

Compound | Percent inhibition of FITC-NLX binding, 0.01 μM ([1]; 0.01 μM compound) [%] | Percent inhibition of FITC-NLX binding, 0.1 μM ([1]; 0.1 μM compound) [%] | Percent inhibition of FITC-NLX binding, 1 μM ([1]; 1 μM compound) [%] | MOR agonist activity, [35S]GTPγS binding to Gαo, 0.1 μM (mu opiate receptor (MOR)) [%] | MOR agonist activity, [35S]GTPγS binding to Gαo, 1 μM + BFNA (mu opiate receptor (MOR)) [%] | MOR agonist activity, [35S]GTPγS binding to Gαo, 1 μM (mu opiate receptor (MOR)) [%] | further results
COc1cccc(OC)c1CC(=O)CC1c2c(cc3c(c2OC)OCO3)CC[N+]1(C)C.[I-] (centres unmarked) [B0036] | 46.6 | 52.8 | 62.1 | 61.4 | 65.1 | 120.6 | mean maximum antinoniception amount (mouse; [3]): about 20%
COCOc1ccc(CCC(=O)CC2c3c(cc4c(c3OC)OCO4)CC[N+]2(C)C)cc1.[I-] (centres unmarked) [B0040] | 40.0 | 53.1 | 57.1 | 146.0 | 55.3 | 243.3 | Go (MOR in anti-Gαo immunoprecipitates), average ([2]; 10 μM): 1419.8; Gs/Go-Coupled Ratio, average ([2]; 10 μM): 0.598; Gs/olf (MOR in anti-Gαs/olf immunoprecipitates), average ([2]; 10 μM): 839.0; Go (MOR in anti-Gαo immunoprecipitates), average ([2]; 100 μM): 1472.6; Gs/Go-Coupled Ratio, average ([2]; 100 μM): 0.332; Gs/olf (MOR in anti-Gαs/olf immunoprecipitates), average ([2]; 100 μM): 867.2; mean maximum antinoniception amount (mouse; [3]): about 25%
COc1ccc(CCC(O)CC2c3c(cc4c(c3OC)OCO4)CC[N+]2(C)C)cc1 (centres unmarked) [B0049] | 32.2 | 40.1 | 47.1 | 181.6 | 133.2 | 364.0 | –
COc1c2c(cc3c1C(CC(=O)CCc1ccccc1)N(C)CC3)OCO2 (centres unmarked) [B0050] | 29.2 | 34.5 | 39.8 | 98.2 | 48.8 | 211.0 | –
COc1c2c(cc3c1C(CC(O)CCc1ccccc1)N(C)CC3)OCO2 (centres unmarked) [B0051] | 29.9 | 35.7 | 43.7 | 115.6 | 43.8 | 161.9 | –
COc1c2c(cc3c1C(CC(O)CCc1ccccc1)[N+](C)(C)CC3)OCO2 (centres unmarked) [B0052] | 30.2 | 39.1 | 44.3 | 98.2 | 40.9 | 151.7 | –
COc1c2c(cc3c1C(CC(O)Cc1ccccc1C)N(C)CC3)OCO2 (centres unmarked) [B0054] | – | – | – | 157.8 | 111.0 | 186.7 | inhibition at 0.01 µM ([1]; read-out: Percent inhibition of FITC-NLX binding, 0.01 μM compound): 25.6%; inhibition at 0.1 µM ([1]; read-out: Percent inhibition of FITC-NLX binding, 0.1 μM compound): 32.6%; inhibition at 1 µM ([1]; read-out: Percent inhibition of FITC-NLX binding, 1 μM compound): 43.3%
C=CCN1CC[C@]23c4c5ccc(O)c4O[C@H]2C(=O)CC[C@@]3(O)[C@H]1C5 [NLX, naloxone] | – | – | – | – | – | – | pKd (filamin A): ~11.40
O=C1CC[C@@]2(O)[C@H]3Cc4ccc(O)c5c4[C@@]2(CCN3CC2CC2)[C@H]1O5 [NTX, naltrexone] | – | – | – | – | – | – | pKd (filamin A): ~11.40
COc1ccc2c3c1O[C@H]1C(=O)CC[C@@]4(O)[C@@H](C2)N(C)CC[C@]314 [Oxycodone, oxycodone, reference compound] | – | – | – | – | – | – | switch of mu opioid receptors from Go to Gs coupling ([2]; 7 days of twice daily 1-hour exposures, organotypic striatal slice cultures): switch from Go to Gs coupling
COc1ccccc1CC(=O)CC1c2c(cc3c(c2OC)OCO3)CC[N+]1(C)C (centres unmarked) [compound 5009] | – | – | – | 128.5 | 87.5 | 270.4 | mean maximum antinoniception amount (mouse; [3]): about 30%
CN1CC[C@]23c4c5ccc(O)c4O[C@H]2[C@@H](O)C=C[C@H]3[C@H]1C5 [morphine, reference compound] | – | – | – | – | – | – | mean maximum antinoniception amount (mouse; 56 mg/kg, at about 20 minutes): about 43%; antinoniceptive effect (mouse; same dose (32 mg/kg), at thirty minutes): about 30%
